The subject of assay [1] is cholesterol level in serum. Description: Effect of reducing a lipid level in blood: serum cholesterol in hamsters fed 1% cholesterol / 0.5% cholic acid diet. The class given is in vivo, golden Syrian hamster. To be noted: once a day for 5 days, relative to control group. As for the experimental part:
The effect of reducing a lipid level in blood by the action of the compounds according to the present invention was determined as follows:
Male golden Syrian hamsters weighing from 80 to 100 g were randomly divided into groups. The hamsters were first fed standard laboratory diets (solid feed MF-1 for mouse/rat/hamster, manufactured by Oriental Yeast Industries, KK) for 3 days. Then, they were fed the experimental diet containing 1% cholesterol and 0.5% cholic acid (manufactured by Oriental Yeast Industries, KK), ad libitum. At the same time, the compounds of the invention formulated in a shown dose (0.1-10 mg/10 ml water/kg) were administrated to the animals orally once a day at a determined time for 5 days. Water was administrated orally to the hamsters of control group in an amount of 10 ml per 1 kg of body weight. After five days of administrating the compounds, the animals were anesthetized with Pentobarbital Na (Nembutal injection, manufactured by Dainabbot) and three hours after the final administration of the test compound, a blood sample was taken from abdominal cava. The serum was separated from the sample by centrifuging.
The cholesterol level in the serum was determined by using a blood cholesterol measuring kit, Determina-TC5 manufactured by Kyowa Medix Co. The results are represented by percent inhibition (%) of cholesterol level in serum relative to that of the control group, and shown in the following Table 2.

Assay [2] deals with acyl-CoA: cholesterol acyltransferase (ACAT). Description: ACAT inhibitory action: cholesteryl-[14C] oleate formation in hamster microsomes. The class given is biochemical. To be noted: radio-labelled oleoyl coenzyme A (14C). The protocol: The ACAT inhibitory action of the compounds according to the present invention was measured as follows:
ACAT activity in the hamster microsomes was determined by measuring the rate of radio-active cholesteryl-[^14 C] oleate formation from cholesterol and radio-labelled oleoyl coenzyme A (^14 C) with or without test compound.
Calculations of IC50 value were made using data of the percent inhibition at each compound concentration.

Setting [3] is: Mesocricetus auratus, po, 120 h, 0.1 mg/kg, read-out: Percent inhibition of cholesterol in serum.
Setting [4] is: Mesocricetus auratus, po, 120 h, read-out: Percent inhibition of cholesterol in serum.

What is called IC50 is the concentration at which inhibition is half-maximal. The low end stands for inhibition by little substance, the high end for a need for much substance.

As to `CCCCCC(CNC(=O)Nc1c(C(C)C)cccc1C(C)C)c1cccc(OC)c1OC` (stereo not drawn) [Example 33], the inhibition in vivo at 0.1 mg/kg in assay [1] (setting [3]) is 24%. The same compound showed an IC50 in assay [2] of 16 nM.

As to `CCCCCCC(CNC(=O)Nc1c(C(C)C)cccc1C(C)C)c1ccc(OC)c(OC)c1` (stereo not drawn) [Example 36], the inhibition in vivo at 1 mg/kg in assay [1] (setting [4]) came to 26%.

Regarding `CCCCCC(CNC(=O)Nc1c(C(C)C)cccc1C(C)C)c1cccc(OC)c1OC` (single isomer, unassigned; (-)) [Example 51, (-)-1-(2-(2,3-dimethoxyphenyl)heptyl)-3-(2,6-diisopropylpheyl)urea], the “Percent inhibition of cholesterol in serum” value in assay [1] (0.1 mg/kg, oral) is 25%.

On to `CCCCC(CNC(=O)Nc1c(C(C)C)cccc1C(C)C)Cc1ccc(Cl)cc1` (stereo not drawn) [Example 49], for which the inhibition in vivo at 10 mg/kg in assay [1] (Mesocricetus auratus, po, 120 h, 10 mg/kg (footnote 2), read-out: Percent inhibition of cholesterol in serum) amounted to 33%.

For `CCCCC(CNC(=O)Nc1c(C(C)C)cccc1C(C)C)c1ccc(C)cc1` (stereo not drawn) [Example 19], the inhibition in vivo at 1 mg/kg in assay [1] (setting [4]) amounted to 36%.

Consider `CCCCCC(CNC(=O)Nc1c(C(C)C)cccc1C(C)C)c1cccc(C)c1` (stereo not drawn) [Example 12], for which, in assay [1] (setting [4]), the inhibition in vivo at 1 mg/kg was determined as 43%. Also, the IC50 in assay [2] amounted to 26 nM.

In the case of `CCCCC(CNC(=O)Nc1c(C(C)C)cccc1C(C)C)c1cccc(OC)c1OC` (stereo not drawn) [Example 32], in assay [1] (setting [4]), the inhibition in vivo at 1 mg/kg was found to be 43%.

Take `CCCCC(CNC(=O)Nc1c(C(C)C)cccc1C(C)C)c1cccc(Cl)c1` (stereo not drawn) [Example 40]: the inhibition in vivo at 1 mg/kg in assay [1] (setting [4]) stood at 38%. This compound also returned an IC50 in assay [2] of 31 nM.

On to `CCCCCC(CNC(=O)Nc1c(C(C)C)cccc1C(C)C)c1cccc(OC)c1` (stereo not drawn) [Example 29], for which the inhibition in vivo at 1 mg/kg in assay [1] (setting [4]) was 36%.

Take `CCCCC(CNC(=O)Nc1c(C(C)C)cccc1C(C)C)c1ccc(C)c(C)c1C` (stereo not drawn) [Example 24]: in assay [1] (setting [4]), the inhibition in vivo at 1 mg/kg amounted to 39%.

Turning to `CCCCC(CNC(=O)Nc1c(C(C)C)cccc1C(C)C)c1ccccc1C` (stereo not drawn) [Example 9], the inhibition in vivo at 1 mg/kg in assay [1] (setting [4]) came out at 19%. This compound had an IC50 in assay [2] of 4.9 nM.

Take `CCCCC(CNC(=O)Nc1c(C(C)C)cccc1C(C)C)c1cccc(CC)c1` (stereo not drawn) [Example 15]: the inhibition in vivo at 1 mg/kg in assay [1] (setting [4]) is 36%.

On to `CC(C)c1cccc(C(C)C)c1NC(=O)NCC(c1ccccc1)C(C)(C)C` (stereo not drawn) [compound 1, 1-(3,3-dimethyl-2-phenylbutyl)-3-(2,6-diisopropyl-phenyl)urea, reference compound], for which the inhibition in vivo at 5 mg/kg in assay [1] (Mesocricetus auratus, po, 120 h, 5 mg/kg, read-out: Percent inhibition of cholesterol in serum) was found to be 5%.

Regarding `CCCCCC(CNC(=O)Nc1c(C(C)C)cccc1C(C)C)c1cccc(OC)c1OC` (single isomer, unassigned; (+)) [Example 50, (+)-1-(2-(2,3-dimethoxyphenyl)heptyl)-3-(2,6-diisopropylpehyl)urea], in assay [1] (setting [3]), the inhibition in vivo at 0.1 mg/kg worked out at 18%.

These data come from US5126483A, “1-phenylalkyl-3-phenylurea derivatives” (Mitsubishi Kasei Corporation, priority 1989, dated 1992).
